Patent publication US20030134848A1, “Substituted 1-aza-2-imino-heterocycles and their use as nicotinic acetylcholin receptors activators” (priority 2000, published 2003)
pKi: −log10 of the molar value. Read-outs that look alike come from different tables or passages of the source.

Assays:
[1] = target: T1, α4β2 subtype of nicotinic acetylcholine receptors (Rattus norvegicus, UniProt P09483+P12390); assay: Binding assay at α4β2 subtype of nicotinic acetylcholine receptors ([3H]-cytisine, rat brain membrane)
T1 construct: rat brain membrane obtained from whole homogenized brain; from tissue; host or cells: whole brain of Fischer-344 male rats, membrane fraction
Source text: (§1) The methods for evaluating the binding capabilities of the compounds at nicotinic acetylcholine receptors are different by subtypes of receptors. The binding capabilities of the compounds at α4β2 nicotinic acetylcholine receptors are examined using rat brain membrane obtained from whole homogenized brain, and determining the inhibiting rate of the compounds against [^3H]-cytisine binding to said brain membrane. Furthermore, the binding capabilities of the compounds at α1β1γδ nicotinic acetylcholine receptors are examined using homogenized rat muscle, and determining the inhibiting rate of the compounds against [^3H]-α-bungarotoxin binding to said muscle homogenate.
The affinity of the compounds of the present invention to α4β2 subtype of nicotinic acetylcholine receptors was performed by the following method, which was modified method described by Pabreza L. A., Dhawan S. & Kellar K. J., Mol. Pharm., 39, 9-12 (1990), and by Anderson D. J. & Arneric S. P., Eur. J. Pharm., 253, 261-267 (1994).
(1) Preparation of Rat Brain Membrane Containing α4β2 Subtype of Nicotinic Acetylcholine Receptors
Fischer-344 strain male rats (body weight: 200-240 g; 9 weeks old) obtained from Charles River Japan were used. Rats were housed in the breeding cage controlled of the room temperature at 23±1° C., and the humidity of 55±5% for 1 to 4 weeks. Rats (3 to 4 rats per a cage) were housed with lights on for 12 hours daily (from 7:00 to 19:00), and allowed free access to food and water.
Preparation of rat brain membrane containing α4β2 subtype of nicotinic acetylcholine receptors was performed as follow. That is, rat brains were isolated just after sacrificed by decapitation, washed with ice-cooled saline solution and then frozen at −80° C. with liquid nitrogen and stored till using. After thawing the frozen brain, the brain was homogenized in 10 volumes of ice-cooled buffer solution (50 mM of Tris-HCl, 120 mM of NaCl, 5 mM of KCl, 1 mM of MgCl2, 2 mM of CaCl2; pH 7.4; 4° C.) using homogenizer (HG30, Hitachi Kohki Ltd.) for 30 seconds, and the homogenate were centrifuged under 1,000×G for 10 minutes at 4° C. The resulting supernatant was separated and the pellet was homogenized again with half volume of aforementioned prior buffer solution and centrifuged under the same conditions. Combined supernatant was further centrifuged under 40,000×G for 20 minutes at 4° C. The pellet was suspended in buffer solution and used for binding assays at receptors.
(2) Experiments of α4β2 Subtype of Nicotinic Acetylcholine Receptors Binding
Suspensions of membrane pellets containing 400-600 μg of protein were added to test tubes containing test compounds and [^3H]-cytisine (2 nM) in a final volume of 200 μl and incubated for 75 minutes in ice-cooled bath. The samples were isolated by vacuum filtration onto Whatman GF/B filters, which were prerinsed with 0.5% polyethylenimine just prior to sample filtration, using Brandel multi manifold cell harvester. The filters were rapidly washed with buffer solution (3×1 ml). The filters were counted in 3 ml of clearsol I (Nacalai Tesque Inc.).
The analyses of the experimental results were conducted by using the Accufit Competition Program (Beckman Ltd.).

[2] = target: α1β1γδ subtype of nicotinic acetylcholine receptors (Rattus norvegicus, UniProt P18916+P25108+P25110); assay: biochemical; format: binding; conditions: for pKi: read-out: Affinities for receptors Ki α1β1γδ, rat muscle extract, [3H]-α-Bgt 1 nM
Source text: as §1
The affinity of the compounds of the present invention to α1β1γδ subtype of nicotinic acetylcholine receptors was measured by the following method, which was modified method described by Garcha H. S., Thomas P., Spivak C. E., Wonnacott S. & Stolerman I. P., Psychropharmacology, 110, 347-354 (1993).
(1) Preparation of Rat Skeletal Muscles Containing α1β1γδ Subtype of Nicotinic Acetylcholine Receptors
The substantially same animals described in the Biological Experiment 1 were used.
The isolation of α1β1γδ subtype of nicotinic acetylcholine receptors was performed as follow. That is, rat posterior skeletal muscles were isolated just after sacrificed by decapitation, washed with ice-cooled saline solution and then frozen at −80° C. with liquid nitrogen and stored till using. After thawing the frozen muscles, tissue was homogenized (40% w/v) with buffer solution [2.5 mM of sodium phosphate buffer (pH:7.2), 90 mM of NaCl, 2 mM of KCl, 1 mM of EDTA, 2 mM of benzamidine, 0.1 mM of benzethonium chloride, 0.1 mM of PMSF, 0.01% of sodium azide] in Waring blender (Waring blender 34BL97; WARING PRODUCTS DIVISION DYNAMICS CORPORATION OF AMERICA) for 60 seconds. The homogenate were centrifuged under 20,000×G for 60 minutes at 4° C. The supernatant was separated and the resulting pellet was added to the same buffer (1.5 ml/g wet weight), and homogenized under the same conditions. Triton X100 (2% w/v) was added and the mixture was stirred for 3 hours at 4° C. The centrifugation at 100,000×G for 60 minutes at 4° C. yielded the rat muscle extract as supernatant. This was stored at 4° C. for up to 4 weeks, and used for binding assays at receptors.
(2) Experiments of α1β1γδ Subtype of Nicotinic Acetylcholine Receptors Binding
Receptors binding experiments were performed as follow. That is, the extract of rat muscle containing 600-900 μg of protein was added to test tubes containing test compounds and incubated for 15 minutes at 37° C. Then, to this mixture was added 1 nM of [^3H]-α-bungarotoxin (α-Bgt) and further incubated for 2 hours. The samples were isolated by vacuum filtration onto Whatman GF/B filters, which were prerinsed with 0.5% polyethylenimine just prior to sample filtration, using Brandel multi manifold cell harvester. The filters were rapidly rinsed with washing solution (10 mM of KH2PO4, 150 mM of NaCl, pH 7.2, room temperature) (5×1 ml). The filters were counted in 3 ml of clearsol I (Nacalai Tesque Inc.). The determination of nonspecific binding was incubated in the presence of 1 μM α-Bgt. The solutions containing α-Bgt (labeled/non-labeled) were prepared by using buffer solution containing 0.25% of BSA. In the receptor binding experiments, said buffer solution was added for adjusting the final concentration of BSA to be 0.05%.
The analyses of the experimental results were conducted by the same way as described in the Biological Experiment 1.

[3] = rat brain membrane, [3H]-cytisine 2 nM, read-out: Affinities for receptors Ki α4β2
[4] = read-out: control % of [3H]-α-Bgt binding

α1β1γδ subtype of nicotinic acetylcholine receptors, sequence (P25109 24-501): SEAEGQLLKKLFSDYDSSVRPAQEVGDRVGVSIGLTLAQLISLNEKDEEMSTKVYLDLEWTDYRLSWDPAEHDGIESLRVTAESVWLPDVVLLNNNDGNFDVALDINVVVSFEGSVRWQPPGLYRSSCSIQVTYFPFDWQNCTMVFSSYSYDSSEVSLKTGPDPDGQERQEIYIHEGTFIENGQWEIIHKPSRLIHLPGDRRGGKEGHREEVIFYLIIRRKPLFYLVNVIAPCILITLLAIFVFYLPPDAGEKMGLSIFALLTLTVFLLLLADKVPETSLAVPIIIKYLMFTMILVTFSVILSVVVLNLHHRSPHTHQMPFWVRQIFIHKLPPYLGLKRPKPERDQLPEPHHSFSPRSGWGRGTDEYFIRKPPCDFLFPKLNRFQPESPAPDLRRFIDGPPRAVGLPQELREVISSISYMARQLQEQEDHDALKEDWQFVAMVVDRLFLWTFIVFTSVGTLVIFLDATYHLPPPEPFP
α1β1γδ subtype of nicotinic acetylcholine receptors, sequence (P25110 22-517): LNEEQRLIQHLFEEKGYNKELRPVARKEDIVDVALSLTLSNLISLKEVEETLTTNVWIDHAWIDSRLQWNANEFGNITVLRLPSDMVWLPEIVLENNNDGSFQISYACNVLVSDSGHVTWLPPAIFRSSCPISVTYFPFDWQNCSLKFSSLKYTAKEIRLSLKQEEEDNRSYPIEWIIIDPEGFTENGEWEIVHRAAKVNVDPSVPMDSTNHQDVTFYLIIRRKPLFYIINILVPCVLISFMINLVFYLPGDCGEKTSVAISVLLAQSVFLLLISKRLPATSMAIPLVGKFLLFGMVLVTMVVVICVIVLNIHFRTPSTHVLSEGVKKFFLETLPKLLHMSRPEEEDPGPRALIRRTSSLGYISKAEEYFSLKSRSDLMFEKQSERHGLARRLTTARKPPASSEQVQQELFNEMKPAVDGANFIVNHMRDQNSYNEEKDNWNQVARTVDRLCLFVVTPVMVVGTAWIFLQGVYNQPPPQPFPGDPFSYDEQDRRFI
α1β1γδ subtype of nicotinic acetylcholine receptors, sequence (P25108 21-457): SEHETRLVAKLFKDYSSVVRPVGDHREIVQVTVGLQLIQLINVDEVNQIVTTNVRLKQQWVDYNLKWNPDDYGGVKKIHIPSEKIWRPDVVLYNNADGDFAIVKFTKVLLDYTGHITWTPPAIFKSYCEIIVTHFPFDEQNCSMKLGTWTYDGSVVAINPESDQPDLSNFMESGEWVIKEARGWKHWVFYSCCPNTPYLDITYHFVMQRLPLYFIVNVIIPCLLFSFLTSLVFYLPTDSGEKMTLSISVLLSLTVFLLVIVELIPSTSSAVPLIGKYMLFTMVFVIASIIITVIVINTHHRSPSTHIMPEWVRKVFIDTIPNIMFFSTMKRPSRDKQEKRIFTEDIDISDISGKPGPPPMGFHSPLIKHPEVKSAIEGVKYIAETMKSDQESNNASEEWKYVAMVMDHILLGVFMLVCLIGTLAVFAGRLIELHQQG
α1β1γδ subtype of nicotinic acetylcholine receptors, sequence (P18916 23-519): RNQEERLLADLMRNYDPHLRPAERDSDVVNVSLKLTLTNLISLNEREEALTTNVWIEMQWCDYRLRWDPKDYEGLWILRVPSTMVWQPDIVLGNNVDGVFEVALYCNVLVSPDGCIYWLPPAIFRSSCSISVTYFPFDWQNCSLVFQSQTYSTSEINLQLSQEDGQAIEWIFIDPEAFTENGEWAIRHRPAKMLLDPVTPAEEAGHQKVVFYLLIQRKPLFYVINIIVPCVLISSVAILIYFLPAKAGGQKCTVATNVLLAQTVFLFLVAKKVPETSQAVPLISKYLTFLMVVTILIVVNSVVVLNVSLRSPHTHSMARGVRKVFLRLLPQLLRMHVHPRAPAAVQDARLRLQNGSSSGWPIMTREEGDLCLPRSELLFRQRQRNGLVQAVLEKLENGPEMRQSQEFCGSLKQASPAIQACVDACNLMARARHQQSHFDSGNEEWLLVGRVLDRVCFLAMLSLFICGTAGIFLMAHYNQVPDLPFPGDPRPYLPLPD
T1 sequence (P09483 31-630): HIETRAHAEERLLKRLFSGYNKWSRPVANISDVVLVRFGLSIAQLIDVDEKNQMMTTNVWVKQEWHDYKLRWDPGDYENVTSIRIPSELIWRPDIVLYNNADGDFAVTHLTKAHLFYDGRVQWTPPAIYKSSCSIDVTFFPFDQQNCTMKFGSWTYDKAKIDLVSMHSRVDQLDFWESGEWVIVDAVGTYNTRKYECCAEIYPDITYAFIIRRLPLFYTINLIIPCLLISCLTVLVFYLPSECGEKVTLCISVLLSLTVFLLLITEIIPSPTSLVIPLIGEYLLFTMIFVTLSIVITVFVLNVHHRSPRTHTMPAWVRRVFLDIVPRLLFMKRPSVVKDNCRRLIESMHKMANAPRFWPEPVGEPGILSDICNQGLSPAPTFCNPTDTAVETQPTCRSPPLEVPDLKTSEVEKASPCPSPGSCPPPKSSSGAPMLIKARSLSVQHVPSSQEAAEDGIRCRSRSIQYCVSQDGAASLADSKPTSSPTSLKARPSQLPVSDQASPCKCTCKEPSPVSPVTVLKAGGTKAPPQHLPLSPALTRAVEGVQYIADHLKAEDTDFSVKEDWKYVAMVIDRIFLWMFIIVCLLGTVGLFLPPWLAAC
T1 sequence (P12390 25-500): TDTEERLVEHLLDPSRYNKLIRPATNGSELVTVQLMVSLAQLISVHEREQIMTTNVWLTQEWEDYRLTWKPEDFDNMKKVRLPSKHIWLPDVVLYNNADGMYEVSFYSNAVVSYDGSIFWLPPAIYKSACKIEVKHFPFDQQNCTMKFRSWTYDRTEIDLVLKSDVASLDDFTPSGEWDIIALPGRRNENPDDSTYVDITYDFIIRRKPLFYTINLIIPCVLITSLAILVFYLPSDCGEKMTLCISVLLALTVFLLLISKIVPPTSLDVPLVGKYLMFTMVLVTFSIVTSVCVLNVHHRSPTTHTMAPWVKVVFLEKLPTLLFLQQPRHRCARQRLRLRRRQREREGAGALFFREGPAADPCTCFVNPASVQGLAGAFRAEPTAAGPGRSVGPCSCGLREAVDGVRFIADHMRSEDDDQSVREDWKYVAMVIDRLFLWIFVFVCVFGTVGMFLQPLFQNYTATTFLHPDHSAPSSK

Structure (SMILES) | pKi [1, 3] | pKi [2] | pKi [1] | further results
Nc1nccn1CCc1cncc(Br)c1 [Compound 25, 2-amino-1-[2-(5-bromo-3-pyridyl)ethyl]imidazole] | 8.70 | 4.44 | – | –
Nc1nccn1CCc1cncnc1 [Compound 29, 2-amino-1-[2-(5-pyrimidyl)ethyl]imidazole] | – | 3.35 | 8.22 | –
Cc1ccc(CCn2ccnc2N)cn1 [Compound 11, 2-amino-1-[2-(6-methyl-3-pyridyl)ethyl]imidazole] | 7.68 | 2.94 | – | –
Cc1cncc(CCn2ccnc2N)c1 [Compound 27, 2-amino-1-[2-(5-methyl-3-pyridyl)ethyl]imidazole] | 7.68 | 3.47 | – | –
N=C1NCCCN1CCc1ccc(Cl)nc1 [Compound 12, 1-[2-(6-chloro-3-pyridyl)ethyl]-2-imino-1,2,3,4,5,6-hexahydro-pyrimidine] | – | 4.92 | 8.85 | –
Nc1nccn1CCc1cccnn1 [Compound 30, 2-amino-1-[2-(3-pyridazinyl)ethyl]imidazole] | 7.40 | 4.10 | – | –
Nc1nccn1CCc1ccnnc1 [Compound 34, 2-amino-1-[2-(4-pyridazinyl)ethyl]imidazole] | 7.17 | 2.90 | – | –
Nc1nccn1CCc1cccnc1 [Compound 14, 2-amino-1-[2-(3-pyridyl)ethyl]imidazole] | 8.46 | 3.65 | – | –
Nc1nccn1CCc1cnccn1 [Compound 31, 2-amino-1-[2-(2-pyrazinyl)ethyl]imidazole] | – | – | – | remaining activity at 1 µM ([1]; 1 μM of test compound, rat brain membrane, read-out: control % of [3H]-cytisine binding): 75%; remaining activity at 10 µM ([1]; 10 μM of test compound, rat brain membrane, read-out: control % of [3H]-cytisine binding): 22%; remaining activity at 100 µM [2, 4]: 110%; remaining activity at 1000 µM [2, 4]: 53%
Nc1nccn1CCc1cnc(Cl)c(Cl)c1 [Compound 13, 2-amino-1-[2-(5,6-dichloro-3-pyridyl)ethyl]-imidazole] | – | 4.40 | 8.51 | –
Nc1nccn1CCc1cnc(Cl)s1 [Compound 23, 2-amino-1-[2-(2-chloro-5-thiazolyl)ethyl]imidazole] | – | 4.36 | 8.07 | –
